Among the data in patent US20120088753A1, “PYRROLOPYRIMIDINES AND USED AS KINASE INHIBITORS” (MEDICAL RESEARCH COUNCIL TECHNOLOGY, priority 2009, published 2012) are IC50 values, retold here.

This experiment has as its target T1, TBK1 (Homo sapiens, UniProt Q9UHD2).
T1 construct: All protein kinases were of human origin and encoded full length proteins, unless indicated otherwise; His6; made in house; host or cells: insect Sf21 cells
T1 sequence (Q9UHD2 1-729): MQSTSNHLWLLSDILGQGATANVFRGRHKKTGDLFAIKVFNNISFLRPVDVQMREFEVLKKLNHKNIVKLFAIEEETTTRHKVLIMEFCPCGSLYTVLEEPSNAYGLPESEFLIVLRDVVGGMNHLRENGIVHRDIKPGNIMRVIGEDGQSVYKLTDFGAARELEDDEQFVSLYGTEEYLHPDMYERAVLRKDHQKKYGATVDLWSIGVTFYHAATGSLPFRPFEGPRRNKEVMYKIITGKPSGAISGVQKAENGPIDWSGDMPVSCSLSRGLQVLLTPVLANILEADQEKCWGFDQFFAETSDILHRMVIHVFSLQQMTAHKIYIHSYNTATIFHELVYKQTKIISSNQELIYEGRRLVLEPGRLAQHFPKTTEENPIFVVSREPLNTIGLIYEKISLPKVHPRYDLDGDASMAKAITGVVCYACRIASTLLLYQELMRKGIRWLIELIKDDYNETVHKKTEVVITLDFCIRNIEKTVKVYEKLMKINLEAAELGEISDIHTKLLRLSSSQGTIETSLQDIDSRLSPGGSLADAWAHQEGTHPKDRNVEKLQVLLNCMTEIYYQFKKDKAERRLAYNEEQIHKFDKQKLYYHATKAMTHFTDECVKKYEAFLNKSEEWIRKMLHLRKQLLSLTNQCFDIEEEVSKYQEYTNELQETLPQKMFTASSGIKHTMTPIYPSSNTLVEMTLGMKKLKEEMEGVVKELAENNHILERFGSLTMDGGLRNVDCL
Put plainly: TBK1 protein kinase assay ([γ-33P]ATP filter-plate, IC50 from 10 concentrations). Type of experiment: biochemical. The settings on record: 50 μM ATP, peptide substrate 300 μM, 30 min, 21° C.; read-out: Potency score (TBK1 IC50). The text has this: All protein kinases were of human origin and encoded full length proteins, unless indicated otherwise. They were either expressed as glutathione S-transferase (GST) fusion proteins in Escherichia Coli or as hexahistidine (His6)-tagged proteins in insect Sf21 cells. GST fusion proteins were purified by affinity chromatography on glutathione-Sepharose, and His6-tagged proteins on nickel/nitriloacetate-agarose. The procedures for expressing some of the protein kinases used herein have been detailed previously.^8,9 The following sections outline the DNA vectors synthesised and the procedures used to express and purifying protein kinases that have not been reported previously.
The following kinases were expressed in Sf21 cells: Aurora B and Aurora C, extra-cellular signal-regulated kinase 8 (ERK8), microtubule affinity regulating kinase 3 (MARK3), protein kinase Bα[118-480][S473D], protein kinase Bβ (PKBβ[120-481][S474D], 3-phosphoinositide-dependent protein kinase-1 [52-556] (PDK1[52-556], IKKε, TBK1,
All assays (25.5 μl) were carried out at room temperature (21° C.) and were linear with respect to time and enzyme concentration under the conditions used. Assays were performed for 30 min using Multidrop Micro reagent dispensers (Thermo Electron Corporation, Waltham, Mass. 02454, USA) in a 96-well format. The concentration of magnesium acetate in the assays was 10 mM and the [γ-33P] ATP (800 cpm/pmol) was used at 5, 20 or 50 μM as indicated, in order to be at or below the Km for ATP for each enzyme. Protein kinases assayed at 5 μM ATP were: ERK1, ERK8, PKBα, MARK3, Aurora C. Protein kinases assayed at 20 μM ATP were: JNK1, PDK1, CHK1, CHK2, CDK2 and Aurora B. Protein kinases assayed at 50 μM ATP were: MNK2, IKKepsilon and TBK1.
The assays were initiated with MgATP, stopped by addition of 5 μl of 0.5 M orthophosphoric acid and spotted on to P81 filterplates using a unifilter harvester (PerkinElmer, Boston, Mass. 02118, USA). The IC50 values of inhibitors were determined after carrying out assays at 10 different concentrations of each compound.
ERK1 and ERK8 were both assayed against myelin basic protein (MBP, 0.33 mg/ml). MARK3 was assayed against the peptide […] (300 μM), MNK2 against the eIF4E protein (0.5 mg/ml). PKBβ was assayed against the peptide GRPRTSSFAEGKK (30 μM). TBK1 were assayed against ([…]) (300 μM). The substrates used for other protein kinases were described previously.^8,9
Unless stated otherwise, enzymes were diluted in 50 mM Tris/HCl pH 7.5, 0.1 mM EGTA, 1 mg/ml BSA, 0.1% (v/v) 2-mercaptoethanol and assayed in 50 mM Tris/HCl pH 7.5, 0.1 mM EGTA, 0.1% (v/v) 2-mercaptoethanol.
Broadly, the IC50 is the concentration that gives 50% inhibition. On to `O=C(NCCCn1cc(Cl)c2cnc(Nc3cccc(F)c3)nc21)c1cccs1` [Example 38, Thiophene-2-carboxylic acid {3-[5-chloro-2-(3-fluoro-phenylamino)-pyrrolo[2,3-d]pyrimidin-7-yl]-propyl}-amide], for which the IC50 was in the range of 100 to 1000 nM.
The result for `O=C(NCCCn1ccc2cnc(Nc3ccc4ncccc4c3)nc21)C1CCC1` [Example 50, Cyclobutanecarboxylic acid {3-[2-(quinolin-6-ylamino)-pyrrolo[2,3-d]pyrimidin-7-yl]-propyl}-amide] reads less than 100 nM; that for `O=C(NCCCn1ccc2cnc(Nc3ccc(N4CCOCC4)nc3)nc21)C1CCC1` [Example 30, Cyclobutanecarboxylic acid {3-[2-(6-morpholin-4-yl-pyridin-3-ylamino)-pyrrolo[2,3-d]pyrimidin-7-yl]propyl}-amide], less than 100 nM; that for `O=C(NCCCn1ccc2cnc(Nc3ccc(C4CCN(CCF)CC4)cc3)nc21)C1CCC1` [Example 60, Cyclobutanecarboxylic acid [3-(2-{4-[1-(2-fluoro-ethyl)-piperidin-4-yl]-phenylamino}-pyrrolo[2,3-d]pyrimidin-7-yl)-propyl]-amide], less than 100 nM.
As for `Cn1ncc2cc(Nc3ncc4ccn(CCCNC(=O)C5CCC5)c4n3)ccc21` [Example 1, Cyclobutanecarboxylic acid {3-[2-(1-methyl-1H-indazol-5-ylamino)-pyrrolo[2,3-d]pyrimidin-7-yl]propyl}-amide], the concentration for half-maximal inhibition (IC50) is less than 100 nM.
For the compound `O=C(NCCCn1ccc2cnc(Nc3ccc(N4CCCC4=O)cc3)nc21)C1CCC1` [Example 39, Cyclobutanecarboxylic acid (3-{2-[4-(2-oxo-pyrrolidin-1-yl)-phenylamino]-pyrrolo[2,3-d]pyrimidin-7-yl}-propyl)-amide], the IC50 is less than 100 nM.
Under `O=C(NCCCn1cc(Cl)c2cnc(Nc3ccc(N4CCOCC4)nc3)nc21)C1CCC1` [Example 35, Cyclobutanecarboxylic acid {3-[5-chloro-2-(6-morpholin-4-yl-pyridin-3-ylamino)-pyrrolo[2,3-d]pyrimidin-7-yl]-propyl}-amide] stands less than 100 nM.
For `O=C(NCCCn1ccc2cnc(Nc3cccc(CN4CCOCC4)c3)nc21)C1CCC1` [Example 52, Cyclobutanecarboxylic acid {3-[2-(3-morpholin-4-ylmethyl-phenylamino)-pyrrolo[2,3-d]pyrimidin-7-yl]-propyl}-amide], the IC50 is less than 100 nM.
With `O=C(NCCCn1ccc2cnc(Nc3cccnc3)nc21)C1CCC1` [Example 43, Cyclobutanecarboxylic acid {3-[2-(pyridin-3-ylamino)-pyrrolo[2,3-d]pyrimidin-7-yl]-propyl}-amide], the IC50 was less than 100 nM.
On to `CC(C)C(=O)NCCCn1ccc2cnc(Nc3ccc(N4CCOCC4)nc3)nc21` [Example 23, N-{3-[2-(6-Morpholin-4-yl-pyridin-3-ylamino)-pyrrolo[2,3-d]pyrimidin-7-yl]-propyl}-isobutyramide], for which the IC50 lay in the range of 1000 to 10000 nM.
On to `O=C(NCCCn1ccc2cnc(Nc3ccc(N4CCOCC4)nc3)nc21)c1cnccn1` [Example 17, Pyrazine-2-carboxylic acid {3-[2-(6-morpholin-4-yl-pyridin-3-ylamino)-pyrrolo[2,3-d]pyrimidin-7-yl]-propyl}-amide], for which the 50% inhibitory concentration (IC50) was 100 to 1000 nM.
Under `O=C(NCCCn1ccc2cnc(Nc3cccc(C(F)(F)F)c3)nc21)c1cccs1` [Example 13, Thiophene-2-carboxylic acid {3-[2-(3-trifluoromethyl-phenylamino)-pyrrolo[2,3-d]pyrimidin-7-yl]-propyl}-amide] stands 1000 to 10000 nM; under `O=C(NCCCn1ccc2cnc(Nc3cccc(F)c3)nc21)C1CCCC1` [Example 32, Cyclopentanecarboxylic acid {3-[2-(3-fluoro-phenylamino)-pyrrolo[2,3-d]pyrimidin-7-yl]-propyl}-amide], 100 to 1000 nM.
For `O=C(NCCCn1ccc2cnc(Nc3ccc(N4CCOCC4)nc3)nc21)C1CCOC1` (centres unmarked) [Example 20, Tetrahydro-furan-3-carboxylic acid {3-[2-(6-morpholin-4-yl-pyridin-3-ylamino)-pyrrolo[2,3-d]pyrimidin-7-yl]-propyl}-amide], the 50% inhibitory concentration (IC50) is less than 100 nM.
The result for `CN1CCCN(c2ccc(Nc3ncc4ccn(CCCNC(=O)C5CCC5)c4n3)cn2)CC1` [Example 55, Cyclobutanecarboxylic acid (3-{2-[6-(4-methyl-perhydro-1,4-diazepin-1-yl)-pyridin-3-ylamino]-pyrrolo[2,3-d]pyrimidin-7-yl}-propyl)-amide] reads 100 to 1000 nM; that for `O=C(NCCCn1ccc2cnc(Nc3cccc(F)c3)nc21)c1cccs1` [Example 10, Thiophene-2-carboxylic acid {3-[2-(3-fluoro-phenylamino)-pyrrolo[2,3-d]pyrimidin-7-yl]-propyl}-amide], less than 100 nM.
The result for `CC(C)N1CCC(n2cc(Nc3ncc4ccn(CCCNC(=O)C5CCC5)c4n3)cn2)CC1` [Example 51, Cyclobutanecarboxylic acid (3-{2-[1-(1-isopropyl-piperidin-4-yl)-1H-pyrazol-4-ylamino]-pyrrolo[2,3-d]pyrimidin-7-yl}-propyl)-amide] reads less than 100 nM; that for `O=C(CC1CC1)NCCCn1ccc2cnc(Nc3ccc(N4CCOCC4)nc3)nc21` [Example 18, 2-Cyclopropyl-N-{3-[2-(6-morpholin-4-yl-pyridin-3-ylamino)-pyrrolo[2,3-d]pyrimidin-7-yl]-propyl}-acetamide], 100 to 1000 nM.
`O=C(NCCCn1cc(Br)c2cnc(Nc3cccc(F)c3)nc21)C1CCC1` [Example 36, Cyclobutanecarboxylic acid {3-[5-bromo-2-(3-fluoro-phenylamino)-pyrrolo[2,3-d]pyrimidin-7-yl]-propyl}-amide]: the IC50 is less than 100 nM.
As to `O=C(NCCCn1ccc2cnc(Nc3cccc(-n4cncn4)c3)nc21)C1CCC1` [Example 41, Cyclobutanecarboxylic acid {3-[2-(3-1,2,4-triazol-1-yl-phenylamino)-pyrrolo[2,3-d]pyrimidin-7-yl]-propyl}-amide], the IC50 was less than 100 nM.
The result for `O=C(NCCCn1ccc2cnc(Nc3ccc4[nH]ncc4c3)nc21)C1CCC1` [Example 40, Cyclobutanecarboxylic acid {3-[2-(1H-indazol-5-ylamino)-pyrrolo[2,3-d]pyrimidin-7-yl]-propyl}-amide] reads less than 100 nM; that for `O=C(NCCCn1ccc2cnc(Nc3cccc(N4CCCC4=O)c3)nc21)C1CCC1` [Example 29, Cyclobutanecarboxylic acid (3-{2-[3-(2-oxo-pyrrolidin-1-yl)-phenylamino]-pyrrolo[2,3-d]pyrimidin-7-yl}-propyl)-amide], 100 to 1000 nM; that for `Cn1ncc2ccc(Nc3ncc4ccn(CCCNC(=O)C5CCC5)c4n3)cc21` [Example 2, Cyclobutanecarboxylic acid {3-[2-(1-methyl-1H-indazol-6-ylamino)-pyrrolo[2,3-d]pyrimidin-7-yl]-propyl}-amide], less than 100 nM.
